According to patent US4889860A (Nova Pharmaceutical Corporation, priority 1987, dated 1989):
Read-outs that look alike come from different tables or passages of the source.

What was measured:
[1] = test system: oxymorphonazine (OMZ)-induced analgesia; test: antagonism of oxymorphonazine (OMZ)-induced analgesia (tail flick) in rats; format: in vivo, rat
Protocol: The compound of Example XII was evaluated for its potency and duration in the antagonism of oxymorphonazine (OMZ)-induced analgesia. […] Data represent the mean SEM of 4-5 animals per group.
(Cowan A. Trendsin Pharmacology Science, 7:69-72, 1986) With this test the intracerebroventricular administration of bombesin produces a characteristic scratching response.

[2] = food intake in 24 hr food-deprived rats; format: in vivo, rat; details: for Food Intake in Grams: Table 3, 24 hr; for Cumulative Food Intake in Grams: Table 4
Protocol: Rats were given water and powdered food ad lib for 8 days until food intake had stabilized, and body weight and food and water intakes were recorded at the same time every day. Animals were assigned to treatment groups matched on the basis of their 24 hr food consumption on the last baseline day, and rats were food deprived for 24 hr immediately before injection of the test compound. […] The compound of Example XII was injected S.C. at doses of 1.15, 2.31, 11.55 and 23.09 μmol/kg, in a volume of 4 ml/kg of 0.3% acetic acid. Controls were injected with the vehicle solutions in the appropriate volumes. Food and water intakes were measured at 1, 3 and 24 hr after treatment. Data for each measure and time point were analyzed by one-way analysis of variance (ANOVA), and post-hoc comparisons were performed using Dunnett's test in order to compare the control mean to each of the treatment means.
Rats were given water and powdered food for 8 days, and following this,
Testing was performed as described above, and baseline measurements were recorded for 7 days. […] The compound of Example XII was injected at doses of 11.55, 23.09, 46.19 and 92.38 μmol/kg by suspension in a solution of 1:1 DMSO:water in a volume of 3 ml/kg. Food and water intakes were recorded at 1, 2, 4 and 6 h following treatment.
See Table 3 for experimental details, except that baseline measures were […]

mu-type opioid receptor = target: T1, mu-type opioid receptor (Rattus norvegicus, UniProt P33535); test: inhibition of specific [^3 H] DAGO binding to rat forebrain membranes
T1 construct: using rat forebrain membranes; from tissue; host or cells: rat forebrain membranes
T1 sequence (P33535 whole entry): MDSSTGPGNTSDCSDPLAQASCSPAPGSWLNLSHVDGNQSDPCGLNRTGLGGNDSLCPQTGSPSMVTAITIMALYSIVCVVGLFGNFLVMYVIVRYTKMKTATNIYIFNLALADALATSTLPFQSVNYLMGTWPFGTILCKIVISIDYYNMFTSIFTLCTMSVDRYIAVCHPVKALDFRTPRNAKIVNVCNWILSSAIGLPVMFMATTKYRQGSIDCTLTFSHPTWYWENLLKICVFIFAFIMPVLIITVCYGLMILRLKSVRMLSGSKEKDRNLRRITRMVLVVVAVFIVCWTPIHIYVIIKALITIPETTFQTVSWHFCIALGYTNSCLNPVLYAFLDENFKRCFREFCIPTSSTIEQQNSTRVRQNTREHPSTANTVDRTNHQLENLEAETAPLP

[3] = target: delta-type opioid receptor (Rattus norvegicus, UniProt P33533); test: inhibition of specific [^3 H] DADLE binding to rat forebrain membranes
Chain of delta-type opioid receptor (P33533 whole entry): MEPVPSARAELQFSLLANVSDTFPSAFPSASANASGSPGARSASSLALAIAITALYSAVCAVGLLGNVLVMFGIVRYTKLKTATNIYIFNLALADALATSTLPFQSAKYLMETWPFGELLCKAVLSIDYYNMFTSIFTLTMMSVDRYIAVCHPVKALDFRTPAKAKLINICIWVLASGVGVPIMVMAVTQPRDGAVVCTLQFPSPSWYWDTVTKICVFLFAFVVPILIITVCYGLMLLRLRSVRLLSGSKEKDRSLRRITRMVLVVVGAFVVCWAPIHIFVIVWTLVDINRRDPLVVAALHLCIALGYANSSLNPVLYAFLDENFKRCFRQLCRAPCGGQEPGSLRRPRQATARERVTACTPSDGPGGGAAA

[4] = target: T2, kappa-type opioid receptor (Cavia porcellus, UniProt P41144); test: inhibition of specific [^3 H] EKC binding to guinea pig cerebellum membrane
T2 construct: using guiniea pig cerebellum membrane; from tissue; host or cells: guinea pig cerebellum membranes
T2 sequence (P41144 whole entry): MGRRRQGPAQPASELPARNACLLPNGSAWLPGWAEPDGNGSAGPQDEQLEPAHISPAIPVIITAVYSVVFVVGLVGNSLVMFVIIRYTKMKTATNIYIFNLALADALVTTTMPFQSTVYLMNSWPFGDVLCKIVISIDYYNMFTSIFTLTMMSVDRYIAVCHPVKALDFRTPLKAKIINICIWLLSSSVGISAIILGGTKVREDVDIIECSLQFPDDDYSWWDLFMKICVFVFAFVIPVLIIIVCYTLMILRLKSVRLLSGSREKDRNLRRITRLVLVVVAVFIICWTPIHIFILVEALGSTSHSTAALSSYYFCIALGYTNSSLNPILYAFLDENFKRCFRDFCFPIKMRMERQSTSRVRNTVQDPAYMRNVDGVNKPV

[5] = S.C., dose tested (mg/kg): Naltrexone 0.5, Nalmefene 1.0, XI 10.0, XII 2.5, XIII 0.5, XIV 5.0

Oc1ccc2c3c1O[C@H]1C(=NOc4ccccc4)CC[C@@]4(O)[C@@H](C2)N(CC2CC2)CC[C@]314 [Example XII, 6-Phenyloximino-17-cyclopropylmethyl-4,5 α-epoxy-3, 14-dihydroxymorphinan]
antagonism of OMZ-induced analgesia, PO ([1]; PO, 42.64 μmol/kg, 0.5 hours): 50% | ED50 ([1]; Rattus norvegicus, sc, Table 8, S.C., read-out: ED 50, oxymorphonazine antagonism): 0.34 mg/kg | ED100 ([1]; Rattus norvegicus, sc, Table 8, S.C., read-out: ED 100, oxymorphonazine antagonism): 3.1 mg/kg | Percent Antagonism at 1 Hr [1, 5]: 90% | Percent Antagonism at 1.5 Hr [1, 5]: 92% | Percent Antagonism at 2 Hr [1, 5]: 91% | Percent Antagonism at 3 Hr [1, 5]: 77% | Percent Antagonism at 4 Hr [1, 5]: 91% | Percent Antagonism at 6 Hr [1, 5]: 92% | Percent Antagonism at 8 Hr [1, 5]: 80% | Food Intake in Grams ([2]; S.C. 1.15 μmol/kg): 33.3 ± 1.6 Grams | Food Intake in Grams ([2]; S.C. 2.31 μmol/kg): 31.0 ± 2.0 Grams | Food Intake in Grams ([2]; S.C. 11.55 μmol/kg): 41.7 ± 7.4 Grams | Food Intake in Grams ([2]; S.C. 23.09 μmol/kg): 37.6 ± 5.6 Grams | Cumulative Food Intake in Grams ([2]; S.C. 11.55 μmol/kg, 0-1 Hr): 2.0 ± 1.0 Grams | Cumulative Food Intake in Grams ([2]; S.C. 11.55 μmol/kg, 0-2 Hr): 2.0 ± 1.0 Grams | Cumulative Food Intake in Grams ([2]; S.C. 11.55 μmol/kg, 0-4 Hr): 2.8 ± 0.9 Grams | Cumulative Food Intake in Grams ([2]; S.C. 11.55 μmol/kg, 0-6 Hr): 3.6 ± 1.3 Grams | Cumulative Food Intake in Grams ([2]; S.C. 23.09 μmol/kg, 0-1 Hr): 2.0 ± 0.7 Grams | Cumulative Food Intake in Grams ([2]; S.C. 23.09 μmol/kg, 0-2 Hr): 2.4 ± 0.8 Grams | Cumulative Food Intake in Grams ([2]; S.C. 23.09 μmol/kg, 0-4 Hr): 3.6 ± 1.5 Grams | Cumulative Food Intake in Grams ([2]; S.C. 23.09 μmol/kg, 0-6 Hr): 3.6 ± 1.5 Grams | Cumulative Food Intake in Grams ([2]; S.C. 46.19 μmol/kg, 0-1 Hr): 2.8 ± 0.6 Grams | Cumulative Food Intake in Grams ([2]; S.C. 46.19 μmol/kg, 0-2 Hr): 2.8 ± 0.6 Grams | Cumulative Food Intake in Grams ([2]; S.C. 46.19 μmol/kg, 0-4 Hr): 3.2 ± 0.6 Grams | Cumulative Food Intake in Grams ([2]; S.C. 46.19 μmol/kg, 0-6 Hr): 3.6 ± 0.8 Grams | Cumulative Food Intake in Grams ([2]; S.C. 92.38 μmol/kg, 0-1 Hr): 3.2 ± 0.6 Grams | Cumulative Food Intake in Grams ([2]; S.C. 92.38 μmol/kg, 0-2 Hr): 3.2 ± 0.6 Grams | Cumulative Food Intake in Grams ([2]; S.C. 92.38 μmol/kg, 0-4 Hr): 4.0 ± 0.7 Grams | Cumulative Food Intake in Grams ([2]; S.C. 92.38 μmol/kg, 0-6 Hr): 4.8 ± 1.1 Grams | Ki (mu-type opioid receptor; (Ki) nM, μ receptor (Rat Forebrain), Table 6, [^3 H] DAGO, mean of three experiments): 0.3 nM | Ki (mu-type opioid receptor; Ki, inhibition of specific [^3 H] DAGO binding, Tables 1 and 2, rat brain membranes, MEAN±S.E.M.): 0.21 ± 0.08 nM | Ki ([3]; read-out: (Ki) nM, δ receptor (Rat Forebrain), Table 6, [^3 H] DADLE, mean of three experiments): 0.58 nM | Ki ([3]; read-out: Ki, inhibition of specific [^3 H] DADLE binding, Tables 1 and 2, rat brain membranes, MEAN±S.E.M.): 1.7 ± 0.51 nM | Ki [4]: 3.47 nM
